From PubChem BioAssay AID1963840 (Molecular Pharmacology Branch, DTP, NCI, 2024) come the findings set out here.

pIC50: −log10 of the molar value.

A word on the pIC50: it is −log10 of the IC50, conventionally taken in molar units. The term viability, T/C denotes the result in the treated group divided by that in the control group, in per cent.
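Also: spheroids exposed to compounds for seven days.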
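For viability, T/C in this document: 100% = DMSO vehicle control viability.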

The test system of one assay is 695427-040-R-J1-PDC complex spheroid viability. Put plainly: Anticancer human tumor 695427-040-R-J1-PDC patient-derived colon adenocarcinoma cell line growth inhibition [POLQ]. To be noted: curve of first compound; second compound 0.0316 µM. Summed up: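 PDC + HUVEC + MSC complex spheroids; POLQ inhibitors ± partner drugs; top conc. at/near clinical Cmax, else 10 microM (SN-38 1 microM), half-log dilutions; 37 degrees C, 5% CO2.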
Take `C=CC(=O)N1CCN(c2nc(=O)n(-c3c(C)ccnc3C(C)C)c3nc(-c4c(O)cccc4F)c(F)cc23)C(C)C1` (configuration not stated) + Cc1cccc(N(C)C(=O)C2C(O)CCN2c2nc(C)cc(C(F)(F)F)c2C#N)c1: the pIC50 was under 5.00.
Still for that read-out and setting: then `CC(C)n1c(=O)n(C)c2cnc3cc(F)c(-c4ccc(OCCCN5CCCCC5)nc4)cc3c21` + Cc1cccc(N(C)C(=O)C2C(O)CCN2c2nc(C)cc(C(F)(F)F)c2C#N)c1, with under 5.00; and `CCc1cc2c(N3CCc4c(cc(Cn5ccnc5)cc4-c4cn(C)nc4C(F)(F)F)C3=O)cc(C)nc2c(OC)n1` + Cc1cccc(N(C)C(=O)C2C(O)CCN2c2nc(C)cc(C(F)(F)F)c2C#N)c1, with under 5.00.
The same measure, in the same setting: as for `CCc1cc2c(N3CCc4c(cc(Cn5ccnc5)cc4-c4cn(C)nc4C(F)(F)F)C3=O)ccnc2c(OC)n1` + Cc1cccc(N(C)C(=O)C2C(O)CCN2c2nc(C)cc(C(F)(F)F)c2C#N)c1, the figure is under 5.00.

Staying with this assay, now noted: curve of first compound; second compound 0.1 µM.
`C=CC(=O)N1CCN(c2nc(=O)n(-c3c(C)ccnc3C(C)C)c3nc(-c4c(O)cccc4F)c(F)cc23)C(C)C1` (configuration not stated) + Cc1cccc(N(C)C(=O)C2C(O)CCN2c2nc(C)cc(C(F)(F)F)c2C#N)c1: the pIC50 was under 5.00.
Same read-out and setting: then `CC(C)n1c(=O)n(C)c2cnc3cc(F)c(-c4ccc(OCCCN5CCCCC5)nc4)cc3c21` + Cc1cccc(N(C)C(=O)C2C(O)CCN2c2nc(C)cc(C(F)(F)F)c2C#N)c1, with under 5.00.
Still for that read-out and setting: then `CCc1cc2c(N3CCc4c(cc(Cn5ccnc5)cc4-c4cn(C)nc4C(F)(F)F)C3=O)cc(C)nc2c(OC)n1` + Cc1cccc(N(C)C(=O)C2C(O)CCN2c2nc(C)cc(C(F)(F)F)c2C#N)c1, with under 5.00; and `CCc1cc2c(N3CCc4c(cc(Cn5ccnc5)cc4-c4cn(C)nc4C(F)(F)F)C3=O)ccnc2c(OC)n1` + Cc1cccc(N(C)C(=O)C2C(O)CCN2c2nc(C)cc(C(F)(F)F)c2C#N)c1, with under 5.00.

The same assay, now with this note: curve of first compound; second compound 0.316 µM.
On to `C=CC(=O)N1CCN(c2nc(=O)n(-c3c(C)ccnc3C(C)C)c3nc(-c4c(O)cccc4F)c(F)cc23)C(C)C1` (configuration not stated) + Cc1cccc(N(C)C(=O)C2C(O)CCN2c2nc(C)cc(C(F)(F)F)c2C#N)c1, for which the negative logarithm of the IC50 (pIC50) is under 5.00.
The same measure, in the same setting: as for `CC(C)n1c(=O)n(C)c2cnc3cc(F)c(-c4ccc(OCCCN5CCCCC5)nc4)cc3c21` + Cc1cccc(N(C)C(=O)C2C(O)CCN2c2nc(C)cc(C(F)(F)F)c2C#N)c1, the figure is under 5.00; as for `CCc1cc2c(N3CCc4c(cc(Cn5ccnc5)cc4-c4cn(C)nc4C(F)(F)F)C3=O)cc(C)nc2c(OC)n1` + Cc1cccc(N(C)C(=O)C2C(O)CCN2c2nc(C)cc(C(F)(F)F)c2C#N)c1, under 5.00; as for `CCc1cc2c(N3CCc4c(cc(Cn5ccnc5)cc4-c4cn(C)nc4C(F)(F)F)C3=O)ccnc2c(OC)n1` + Cc1cccc(N(C)C(=O)C2C(O)CCN2c2nc(C)cc(C(F)(F)F)c2C#N)c1, under 5.00.

Still in this assay, the particulars now being: curve of first compound; second compound 1 µM.
With `C=CC(=O)N1CCN(c2nc(=O)n(-c3c(C)ccnc3C(C)C)c3nc(-c4c(O)cccc4F)c(F)cc23)C(C)C1` (configuration not stated) + Cc1cccc(N(C)C(=O)C2C(O)CCN2c2nc(C)cc(C(F)(F)F)c2C#N)c1, the negative-log IC50 (pIC50) was under 5.00.
Same read-out and setting: then `CC(C)n1c(=O)n(C)c2cnc3cc(F)c(-c4ccc(OCCCN5CCCCC5)nc4)cc3c21` + Cc1cccc(N(C)C(=O)C2C(O)CCN2c2nc(C)cc(C(F)(F)F)c2C#N)c1, with under 5.00.
Same read-out and setting: as for `CCc1cc2c(N3CCc4c(cc(Cn5ccnc5)cc4-c4cn(C)nc4C(F)(F)F)C3=O)cc(C)nc2c(OC)n1` + Cc1cccc(N(C)C(=O)C2C(O)CCN2c2nc(C)cc(C(F)(F)F)c2C#N)c1, the figure is under 5.00; as for `CCc1cc2c(N3CCc4c(cc(Cn5ccnc5)cc4-c4cn(C)nc4C(F)(F)F)C3=O)ccnc2c(OC)n1` + Cc1cccc(N(C)C(=O)C2C(O)CCN2c2nc(C)cc(C(F)(F)F)c2C#N)c1, under 5.00.

The assay is the same for the next values; noted with them: curve of first compound; second compound 3.16 µM.
Consider `C=CC(=O)N1CCN(c2nc(=O)n(-c3c(C)ccnc3C(C)C)c3nc(-c4c(O)cccc4F)c(F)cc23)C(C)C1` (configuration not stated) + Cc1cccc(N(C)C(=O)C2C(O)CCN2c2nc(C)cc(C(F)(F)F)c2C#N)c1, for which the negative logarithm of the IC50 (pIC50) was under 5.00.
As for `CC(C)n1c(=O)n(C)c2cnc3cc(F)c(-c4ccc(OCCCN5CCCCC5)nc4)cc3c21` + Cc1cccc(N(C)C(=O)C2C(O)CCN2c2nc(C)cc(C(F)(F)F)c2C#N)c1, the negative logarithm of the IC50 (pIC50) was under 5.00.
Still for that read-out and setting: as for `CCc1cc2c(N3CCc4c(cc(Cn5ccnc5)cc4-c4cn(C)nc4C(F)(F)F)C3=O)cc(C)nc2c(OC)n1` + Cc1cccc(N(C)C(=O)C2C(O)CCN2c2nc(C)cc(C(F)(F)F)c2C#N)c1, the figure is under 5.00; as for `CCc1cc2c(N3CCc4c(cc(Cn5ccnc5)cc4-c4cn(C)nc4C(F)(F)F)C3=O)ccnc2c(OC)n1` + Cc1cccc(N(C)C(=O)C2C(O)CCN2c2nc(C)cc(C(F)(F)F)c2C#N)c1, under 5.00.

The assay is the same for the next values; noted with them: curve of first compound; second compound 10 µM.
As to `C=CC(=O)N1CCN(c2nc(=O)n(-c3c(C)ccnc3C(C)C)c3nc(-c4c(O)cccc4F)c(F)cc23)C(C)C1` (configuration not stated) + Cc1cccc(N(C)C(=O)C2C(O)CCN2c2nc(C)cc(C(F)(F)F)c2C#N)c1, the negative logarithm of the IC50 (pIC50) was under 5.00.
Same read-out and setting: as for `CC(C)n1c(=O)n(C)c2cnc3cc(F)c(-c4ccc(OCCCN5CCCCC5)nc4)cc3c21` + Cc1cccc(N(C)C(=O)C2C(O)CCN2c2nc(C)cc(C(F)(F)F)c2C#N)c1, the figure is under 5.00; as for `CCc1cc2c(N3CCc4c(cc(Cn5ccnc5)cc4-c4cn(C)nc4C(F)(F)F)C3=O)cc(C)nc2c(OC)n1` + Cc1cccc(N(C)C(=O)C2C(O)CCN2c2nc(C)cc(C(F)(F)F)c2C#N)c1, under 5.00; as for `CCc1cc2c(N3CCc4c(cc(Cn5ccnc5)cc4-c4cn(C)nc4C(F)(F)F)C3=O)ccnc2c(OC)n1` + Cc1cccc(N(C)C(=O)C2C(O)CCN2c2nc(C)cc(C(F)(F)F)c2C#N)c1, under 5.00.

The assay is the same for the next values; noted with them: second compound 0.0316 µM; first compound 0.0316 µM; stronger effect = lower value.
Take `C=CC(=O)N1CCN(c2nc(=O)n(-c3c(C)ccnc3C(C)C)c3nc(-c4c(O)cccc4F)c(F)cc23)C(C)C1` (configuration not stated) + Cc1cccc(N(C)C(=O)C2C(O)CCN2c2nc(C)cc(C(F)(F)F)c2C#N)c1: the viability, T/C is 98.8%.
Same read-out and setting: then `CC(C)n1c(=O)n(C)c2cnc3cc(F)c(-c4ccc(OCCCN5CCCCC5)nc4)cc3c21` + Cc1cccc(N(C)C(=O)C2C(O)CCN2c2nc(C)cc(C(F)(F)F)c2C#N)c1, with 97.5%; and `CCc1cc2c(N3CCc4c(cc(Cn5ccnc5)cc4-c4cn(C)nc4C(F)(F)F)C3=O)cc(C)nc2c(OC)n1` + Cc1cccc(N(C)C(=O)C2C(O)CCN2c2nc(C)cc(C(F)(F)F)c2C#N)c1, with 102%.
The same measure, in the same setting: as for `CCc1cc2c(N3CCc4c(cc(Cn5ccnc5)cc4-c4cn(C)nc4C(F)(F)F)C3=O)ccnc2c(OC)n1` + Cc1cccc(N(C)C(=O)C2C(O)CCN2c2nc(C)cc(C(F)(F)F)c2C#N)c1, the figure is 97%.

The assay is the same for the next values; noted with them: second compound 0.0316 µM; first compound 0.1 µM; stronger effect = lower value.
Regarding `C=CC(=O)N1CCN(c2nc(=O)n(-c3c(C)ccnc3C(C)C)c3nc(-c4c(O)cccc4F)c(F)cc23)C(C)C1` (configuration not stated) + Cc1cccc(N(C)C(=O)C2C(O)CCN2c2nc(C)cc(C(F)(F)F)c2C#N)c1, the viability, T/C was 93.9%.
Still for that read-out and setting: as for `CC(C)n1c(=O)n(C)c2cnc3cc(F)c(-c4ccc(OCCCN5CCCCC5)nc4)cc3c21` + Cc1cccc(N(C)C(=O)C2C(O)CCN2c2nc(C)cc(C(F)(F)F)c2C#N)c1, the figure is 98.8%.
Still for that read-out and setting: then `CCc1cc2c(N3CCc4c(cc(Cn5ccnc5)cc4-c4cn(C)nc4C(F)(F)F)C3=O)cc(C)nc2c(OC)n1` + Cc1cccc(N(C)C(=O)C2C(O)CCN2c2nc(C)cc(C(F)(F)F)c2C#N)c1, with 99.6%; and `CCc1cc2c(N3CCc4c(cc(Cn5ccnc5)cc4-c4cn(C)nc4C(F)(F)F)C3=O)ccnc2c(OC)n1` + Cc1cccc(N(C)C(=O)C2C(O)CCN2c2nc(C)cc(C(F)(F)F)c2C#N)c1, with 99.7%.

The assay is the same for the next values; noted with them: second compound 0.0316 µM; first compound 0.316 µM; stronger effect = lower value.
Consider `C=CC(=O)N1CCN(c2nc(=O)n(-c3c(C)ccnc3C(C)C)c3nc(-c4c(O)cccc4F)c(F)cc23)C(C)C1` (configuration not stated) + Cc1cccc(N(C)C(=O)C2C(O)CCN2c2nc(C)cc(C(F)(F)F)c2C#N)c1, for which the viability, T/C is 101%.
`CC(C)n1c(=O)n(C)c2cnc3cc(F)c(-c4ccc(OCCCN5CCCCC5)nc4)cc3c21` + Cc1cccc(N(C)C(=O)C2C(O)CCN2c2nc(C)cc(C(F)(F)F)c2C#N)c1: the viability, T/C is 101%.
Same read-out and setting: then `CCc1cc2c(N3CCc4c(cc(Cn5ccnc5)cc4-c4cn(C)nc4C(F)(F)F)C3=O)cc(C)nc2c(OC)n1` + Cc1cccc(N(C)C(=O)C2C(O)CCN2c2nc(C)cc(C(F)(F)F)c2C#N)c1, with 104%; and `CCc1cc2c(N3CCc4c(cc(Cn5ccnc5)cc4-c4cn(C)nc4C(F)(F)F)C3=O)ccnc2c(OC)n1` + Cc1cccc(N(C)C(=O)C2C(O)CCN2c2nc(C)cc(C(F)(F)F)c2C#N)c1, with 98.2%.

The same assay, now with this note: second compound 0.0316 µM; first compound 1 µM; stronger effect = lower value.
With `C=CC(=O)N1CCN(c2nc(=O)n(-c3c(C)ccnc3C(C)C)c3nc(-c4c(O)cccc4F)c(F)cc23)C(C)C1` (configuration not stated) + Cc1cccc(N(C)C(=O)C2C(O)CCN2c2nc(C)cc(C(F)(F)F)c2C#N)c1, the viability, T/C is 105%.
The same measure, in the same setting: as for `CC(C)n1c(=O)n(C)c2cnc3cc(F)c(-c4ccc(OCCCN5CCCCC5)nc4)cc3c21` + Cc1cccc(N(C)C(=O)C2C(O)CCN2c2nc(C)cc(C(F)(F)F)c2C#N)c1, the figure is 111%; as for `CCc1cc2c(N3CCc4c(cc(Cn5ccnc5)cc4-c4cn(C)nc4C(F)(F)F)C3=O)cc(C)nc2c(OC)n1` + Cc1cccc(N(C)C(=O)C2C(O)CCN2c2nc(C)cc(C(F)(F)F)c2C#N)c1, 108%; as for `CCc1cc2c(N3CCc4c(cc(Cn5ccnc5)cc4-c4cn(C)nc4C(F)(F)F)C3=O)ccnc2c(OC)n1` + Cc1cccc(N(C)C(=O)C2C(O)CCN2c2nc(C)cc(C(F)(F)F)c2C#N)c1, 104%.

Still in this assay, the particulars now being: second compound 0.0316 µM; first compound 3.16 µM; stronger effect = lower value.
For `C=CC(=O)N1CCN(c2nc(=O)n(-c3c(C)ccnc3C(C)C)c3nc(-c4c(O)cccc4F)c(F)cc23)C(C)C1` (configuration not stated) + Cc1cccc(N(C)C(=O)C2C(O)CCN2c2nc(C)cc(C(F)(F)F)c2C#N)c1, the viability, T/C is 107%.
Same read-out and setting: as for `CC(C)n1c(=O)n(C)c2cnc3cc(F)c(-c4ccc(OCCCN5CCCCC5)nc4)cc3c21` + Cc1cccc(N(C)C(=O)C2C(O)CCN2c2nc(C)cc(C(F)(F)F)c2C#N)c1, the figure is 98.3%.
